The NIST ThermoML archive (doi:10.1021/je600567z)
Numbers after ± are expanded uncertainties.

Experiment: activity coefficient (dimensionless); of the first substance listed, at infinite dilution; xn = mol fraction of the nth substance listed
Settings: Liquid, x1 = 0
[1] = 273.35 K, Relative Headspace Analysis
[2] = 283.15 K, Relative Headspace Analysis
[3] = 363.15 K, circulation equilibrium still
[4] = 371.15 K, circulation equilibrium still
[5] = 333.15 K, Rayleigh distallation
[6] = 343.15 K, Rayleigh distallation
[7] = 353.15 K, circulation equilibrium still
[8] = 293.15 K, Relative Headspace Analysis

Row | Structure (SMILES) | activity coefficient [1] | activity coefficient [2] | activity coefficient (293.15 K, headspace analysis) | activity coefficient (303.15 K, headspace analysis) | activity coefficient (313.15 K, headspace analysis) | activity coefficient (323.15 K, headspace analysis) | activity coefficient (333.15 K, headspace analysis) | activity coefficient [3] | activity coefficient [4] | activity coefficient [5] | activity coefficient [6] | activity coefficient [7] | activity coefficient [8] | also measured
1 | CC(C)CO [2-methyl-1-propanol] + O | 31.6 ± 1.9 | 36.8 ± 2.2 | 44.3 ± 2.7 | 50.3 ± 3 | 54.1 ± 3.2 | 57.6 ± 3.5 | 58.3 ± 3.5 | 54.3 ± 3.3 | 52.2 ± 3.1 |  |  |  |  | activity coefficient (298.15 K, Relative Headspace Analysis): 47.4 ± 2.8
2 | CC(C)(C)O [2-methylpropan-2-ol] + O |  |  |  | 14.4 ± 0.9 | 16.9 ± 1 |  |  | 26.3 ± 1.6 | 27.4 ± 1.6 | 21.8 ± 1.3 | 23.5 ± 1.4 | 25.4 ± 1.5 |  | activity coefficient (299.15 K, headspace analysis): 13.1 ± 0.8; activity coefficient (323.15 K, Rayleigh distallation): 19.9 ± 1.2
3 | CCC(C)O (configuration not stated) [butan-2-ol] + O | 13.7 ± 0.8 | 17.9 ± 1.1 | 22.5 ± 1.4 | 26.8 ± 1.6 | 31.3 ± 1.9 | 33.8 ± 2 | 36.9 ± 2.2 | 40.4 ± 2.4 | 37.8 ± 2.3 |  | 38 ± 2.3 |  | 22.6 ± 1.4 | activity coefficient (303.15 K, inert gas stripping): 26.8 ± 1.6; activity coefficient (313.15 K, inert gas stripping): 30.8 ± 1.8; activity coefficient (323.15 K, inert gas stripping): 34.4 ± 2.1; activity coefficient (333.15 K, inert gas stripping): 35.7 ± 2.1; activity coefficient (353.15 K, Rayleigh distallation): 38.4 ± 2.3
4 | CC(C)O [propan-2-ol] + O |  | 5.37 ± 0.32 |  |  |  |  |  | 12.9 ± 0.8 | 13.1 ± 0.8 | 11.8 ± 0.7 |  | 12.5 ± 0.8 | 6.89 ± 0.41 | activity coefficient (308.15 K, Relative Headspace Analysis): 8.84 ± 0.53
